Entries after “also recorded” stand apart in the source; their conditions may differ.
Test system: 5XFAD mice
Assay: Weekly intravenous or intranasal cyclic RGD (Cilengitide) administration to 5XFAD mice: microglial proinflammatory responses
Assay type: in vivo, mouse
Conditions: vs saline
Description: (A) Schematic outline of cyclic RGD (Cilengitide) administration. Weekly intravenous injection (25 mg/kg) or intranasal delivery (10 mg/kg) of Cilengitide or vehicle control (saline) into 5XFAD mice starting at 6-mo of age for 1 or 2 months. Microglial proinflammatory responses were analyzed after 1-mo or 2-mo treatment. […] IV injection of Cilengitide for 1 month reduced the percentage of CD11c^+ microglia by 50% and decreased CD11c^+ microglial TNF-α production by ˜50% in 5XFAD mice (n=3). […]. […] IV injection of Cilengitide for 2 months reduced the percentage of CD11c+ microglia by 60% and decreased CD11c+ microglial TNF-α production by 55% in 5XFAD mice compared with vehicle (saline) treated control mice (n=3). *p<0.05, **p<0.01, ***p<0.001.
Weekly administration of cyclic RGD (Cilengitide) was given intravenously or intranasally to 6-mo old mice, continuing for 1 or 2 months. Microglial proinflammatory responses and Aβ plaque pathology were analyzed after 1-mo or 2-mo of treatment (FIG. 43A).

[1] = intranasal 10 mg/kg weekly, 1 month
[2] = intranasal 10 mg/kg weekly, 2 months

CC(C)[C@H]1C(=O)N[C@@H](CCCN=C(N)N)C(=O)NCC(=O)N[C@@H](CC(=O)O)C(=O)N[C@H](Cc2ccccc2)C(=O)N1C [Cilengitide]
decrease of CD11c^+ microglial TNF-α production (IV 25 mg/kg weekly, 1 month): ~50% | reduction of percentage of CD11c^+ microglia (IV 25 mg/kg weekly, 1 month): 50% | decrease of CD11c+ microglial TNF-α production (IV 25 mg/kg weekly, 2 months): 55% | reduction of percentage of CD11c+ microglia (IV 25 mg/kg weekly, 2 months): 60% | CD11c^+ microglia (in words) [1]: decrease; also recorded: decreased tendency | reduction of TNF-α production by CD11c^+ microglia [1]: ~35% | decrease of percentage of CD11c+ microglia [2]: 35% | reduction of TNF-α expression by CD11c+ microglia [2]: ~45%

Source: patent US20250381277A1, “COMPOSITIONS AND METHODS FOR TREATMENT OF NEUROLOGICAL DISORDERS” (Dana-Farber Cancer Institute, Inc., priority 2022, published 2025)
